Data published in patent publication US12290519B2, “Anti-inflammatory coupling compound drug, and preparation method therefor and use thereof” (COVAL BIOPHARMA (SHANGHAI) CO., LTD., priority 2021, dated 2025).

Test: Hydrolysis rate / drug release rate of the compounds (release of JAK inhibitor, HPLC)
Type: physicochemical
Conditions: % release of JAK inhibitor from sample in acetonitrile/water=7/3 (v/v), 37° C. constant temperature shaker, sampled days 1-4, HPLC
Procedure: Analysis Method for Hydrolysis Rate of Compounds of the Present Invention
1. Preparation of Standard Working Curve Solution
About 10 mg of JAK inhibitors (tofacitinib and baricitinib) reference substances were weighed into a 25 mL volumetric flask, acetonitrile/water=7/3 (v/v) was added to dissolve and dilute to the marked volume, serving as a stock solution. The stock solution was diluted with a suitable dilution factor to obtain linear solutions of each concentration: 0.0002 mg/mL, 0.0004 mg/mL, 0.004 mg/mL, 0.04 mg/mL, and 0.08 mg/mL.
About 10 mg of JAK inhibitors (Oclacitinib, Ruxolitinib, Delgocitinib, and Upadacitinib) reference substances were weighed into a 25 mL volumetric flask, acetonitrile/water=7/3 (v/v) was added to dissolve and dilute to the marked volume, serving as a stock solution. The stock solution was diluted with a suitable dilution factor to obtain linear solutions of each concentration: 0.0002 mg/mL, 0.0004 mg/mL, 0.004 mg/mL, 0.04 mg/mL, and 0.08 mg/mL.
2. Preparation of Sample Solution
About 5 mg of the sample (the compound prepared in the present invention) was weighed into a 20 mL volumetric flask, acetonitrile/water=7/3 (v/v) was added to dissolve and dilute to the marked volume, serving as a stock solution. An appropriate amount of HPLC was loaded as the 0-day sample. The test solution was sealed with a sealing film and placed in a 37° C. constant temperature shaker. The test samples were taken at the same time on days 1, 2, 3, and 4 respectively. the release amount of JAK inhibitor in the sample was calculated according to the sample weight and JAK inhibitor standard curve.
3. Calculation Formula % Release of JAK Inhibitor r=100%×((AJAK Inhibitor−b)/a)/((W/20×M2/M1) wherein • AJAK inhibitor is the peak area of JAK inhibitor in the sample chromatogram • b is the intercept of the standard curve M1 is the molecular weight of the sample a is the slope of the standard curve
W is the sample weight (mg) M2 is the molecular weight of the JAK inhibitor
4. Chromatographic Conditions

Structure (SMILES)	Release Rate (%/day)
CCS(=O)(=O)N1CC(CC#N)(n2cc(-c3ncnc4c3ccn4C(=O)Cc3ccc(NC(C)=O)cc3)cn2)C1 [Ex. 24, N-(4-(2-(4-(1-(3-(cyanomethyl)-1-(ethylsulfonyl)azetidin-3-yl)-1H-pyrazol-4-yl)-7H-pyrrolo [2,3-d]pyrimidin-7-yl)-2-oxoethyl)phenyl) acetamide]	5.96 %/day
CCc1cccc2c3c([nH]c12)C(CC)(CC(=O)n1ccc2c(-c4cnn(C5(CC#N)CN(S(=O)(=O)CC)C5)c4)ncnc21)OCC3 (stereo not drawn) [Ex. 25, 2-(3-(4-(7-(2-(1,8-diethyl-1,3,4,9-tetrahydropyrano [3,4-b]indol-1-yl)acetyl)-7H-pyrrolo [2,3-d]pyrimidin-4-yl)-1H-pyrazol-1-yl)-1-(ethylsulfonyl)azetidin-3-yl) acetonitrile]	0.68 %/day
CCS(=O)(=O)N1CC(CC#N)(n2cc(-c3ncnc4c3ccn4C(=O)[C@@H](NC(=O)OC(C)(C)C)c3ccccc3)cn2)C1 [Ex. 26, Tert-butyl (S)-(2-(4-(1-(3-(cyanomethyl)-1-(ethylsulfonyl)azetidin-3-yl)-1H-pyrazol-4-yl)-7H-pyrrolo [2,3-d]pyrimidin-7-yl)-2-oxo-1-phenylethyl) carbamate]	36.19 %/day
CCC(C(=O)n1ccc2c(-c3cnn(C4(CC#N)CN(S(=O)(=O)CC)C4)c3)ncnc21)c1ccc(N2Cc3ccccc3C2=O)cc1 (stereo not drawn) [Ex. 30, 2-2-(1-(Ethylsulfonyl)-3-(4-(7-(2-(4-(1-oxoisoindolin-2-yl)phenyl)butanoyl)-7H-pyrrolo [2,3-d]pyrimidin-4-yl)-1H-pyrazol-1-yl)azetidin-3-yl) acetonitrile]	1.63 %/day
COc1ccc2cc([C@H](C)C(=O)n3ccc4c(-c5cnn([C@H](CC#N)C6CCCC6)c5)ncnc43)ccc2c1 [Ex. 31]	3.08 %/day
CC(C(=O)n1ccc2c(-c3cnn([C@H](CC#N)C4CCCC4)c3)ncnc21)c1cccc(C(=O)c2ccccc2)c1 (stereo partly drawn) [Ex. 32, (3R)-3-(4-(7-(2-(3-benzoylphenyl)propanoyl)-7H-pyrrolo [2,3-d]pyrimidin-4-yl)-1H-pyrazol-1-yl)-3-cyclopentylpropanenitrile]	7.12 %/day
CC(C(=O)n1ccc2c(-c3cnn([C@H](CC#N)C4CCCC4)c3)ncnc21)c1ccc(-c2ccccc2)c(F)c1 (stereo partly drawn) [Ex. 33, (3R)-3-cyclopentyl-3-(4-(7-(2-(2-fluoro-[1, 1′-biphenyl]-4-yl)propanoyl)-7H-pyrrolo [2,3-d]pyrimidin-4-yl)-1H-pyrazol-1-yl) propanenitrile]	5.01 %/day
CCC(C(=O)n1ccc2c(-c3cnn([C@H](CC#N)C4CCCC4)c3)ncnc21)c1ccc(N2Cc3ccccc3C2=O)cc1 (stereo partly drawn) [Ex. 34, (3R)-3-cyclopentyl-3-(4-(7-(2-(4-(1-oxoisoindolin-2-yl)phenyl)butanoyl)-7H-pyrrolo [2,3-d]pyrimidin-4-yl)-1H-pyrazol-1-yl) propanenitrile]	1.57 %/day
CCC(C(=O)n1ccc2c(N(C)C3CCC(CS(=O)(=O)NC)CC3)ncnc21)c1ccc(N2Cc3ccccc3C2=O)cc1 (stereo not drawn) [Ex. 35, N-methyl-1-((trans)-4-(methyl (7-(2-(4-(1-oxoisoindolin-2-yl)phenyl)butanoyl)-7H-pyrrolo [2,3-d]pyrimidin-4-yl)amino)cyclohexyl) methanesulfonamide]	4.57 %/day
CNS(=O)(=O)CC1CCC(N(C)c2ncnc3c2ccn3C(=O)C(C)c2ccc(-c3ccccc3)c(F)c2)CC1 (stereo not drawn) [Ex. 36, 1-((Trans)-4-((7-(2-(2-fluoro-[1, 1′-biphenyl]-4-yl)propanoyl)-7H-pyrrolo [2,3-d]pyrimidin-4-yl) (methyl)amino)cyclohexyl)-N-methyl methanesulfonamide]	14.98 %/day
CCc1cccc2c3c([nH]c12)C(CC)(CC(=O)n1ccc2c(N(C)C4CCC(CS(=O)(=O)NC)CC4)ncnc21)OCC3 (stereo not drawn) [Ex. 37, 1-((Trans)-4-((7-(2-(1,8-diethyl-1,3,4,9-tetrahydropyrano [3,4-b]indol-1-yl)acetyl)-7H-pyrrolo [2,3-d]pyrimidin-4-yl) (methyl)amino)cyclohexyl)-N-methyl methanesulfonamide]	1.05 %/day
CNS(=O)(=O)CC1CCC(N(C)c2ncnc3c2ccn3C(=O)C(C)c2cccc(C(=O)c3ccccc3)c2)CC1 (stereo not drawn) [Ex. 38, 1-((Trans)-4-((7-(2-(3-benzoylphenyl)propanoyl)-7H-pyrrolo [2,3-d]pyrimidin-4-yl) (methyl)amino)cyclohexyl)-N-methyl methanesulfonamide]	18.42 %/day
CNS(=O)(=O)CC1CCC(N(C)c2ncnc3c2ccn3C(=O)[C@@H](C)c2ccc3cc(OC)ccc3c2)CC1 (stereo partly drawn) [Ex. 39, 1-((Trans)-4-((7-((S)-2-(6-methoxynaphthalen-2-yl)propanoyl)-7H-pyrrolo [2,3-d]pyrimidin-4-yl) (methyl)amino)cyclohexyl)-N-methyl methanesulfonamide]	10.11 %/day
CCS(=O)(=O)N1CC(CC#N)(n2cc(-c3ncnc4c3ccn4C(=O)c3ccccc3Nc3cccc(Cl)c3C)cn2)C1 [Ex. 40, 2-(3-(4-(7-(2-((3-Chloro-2-methylphenyl)amino)benzoyl)-7H-pyrrolo [2,3-d]pyrimidin-4-yl)-1H-pyrazol-1-yl)-1-(ethylsulfonyl)azetidin-3-yl) acetonitrile]	0.62 %/day
CNS(=O)(=O)CC1CCC(N(C)c2ncnc3c2ccn3C(=O)c2ccccc2Nc2cccc(Cl)c2C)CC1 (stereo not drawn) [Ex. 41, 1-((Trans)-4-((7-(2-((3-chloro-2-methylphenyl)amino)benzoyl)-7H-pyrrolo [2,3-d]pyrimidin-4-yl) (methyl)amino)cyclohexyl)-N-methyl methanesulfonamide]	4.27 %/day
CNS(=O)(=O)C[C@H]1CC[C@H](N(C)c2ncnc3c2ccn3C(=O)Cc2c(C)n(C(=O)c3ccc(Cl)cc3)c3ccc(OC)cc23)CC1 [Ex. 42, 1-((Trans)-4-((7-(2-(1-(4-chlorobenzoyl)-5-methoxy-2-methyl-1H-indol-3-yl)acetyl)-7H-pyrrolo [2,3-d]pyrimidin-4-yl) (methyl)amino)cyclohexyl)-N-methylmethanesulfonamide]	22.18 %/day
CNS(=O)(=O)C[C@H]1CC[C@H](N(C)c2ncnc3c2ccn3C(=O)c2ccccc2Nc2cccc(C)c2C)CC1 [Ex. 43, 1-((trans)-4-((7-(2-((2,3-dimethylphenyl)amino)benzoyl)-7H-pyrrolo [2,3-d]pyrimidin-4-yl) (methyl)amino)cyclohexyl)-N-methyl methanesulfonamide]	2.99 %/day
CNS(=O)(=O)C[C@H]1CC[C@H](N(C)c2ncnc3c2ccn3C(=O)C(C)c2ccc(CC3CCCC3=O)cc2)CC1 (stereo partly drawn) [Ex. 44, N-methyl-1-((trans)-4-(methyl (7-(2-(4-((2-oxocyclopentyl)methyl)phenyl)propanoyl)-7H-pyrrolo [2,3-d]pyrimidin-4-yl)amino)cyclohexyl) methanesulfonamide]	10.18 %/day
